We go through 7 molecules from BindingDB's records for doi:10.1124/mol.63.6.1329 (University of Milan, 2003).

This test deals with Neuronal acetylcholine receptor subunit alpha-6 (Gallus gallus, UniProt P49581).
Neuronal acetylcholine receptor subunit alpha-6, sequence (P49581 whole entry): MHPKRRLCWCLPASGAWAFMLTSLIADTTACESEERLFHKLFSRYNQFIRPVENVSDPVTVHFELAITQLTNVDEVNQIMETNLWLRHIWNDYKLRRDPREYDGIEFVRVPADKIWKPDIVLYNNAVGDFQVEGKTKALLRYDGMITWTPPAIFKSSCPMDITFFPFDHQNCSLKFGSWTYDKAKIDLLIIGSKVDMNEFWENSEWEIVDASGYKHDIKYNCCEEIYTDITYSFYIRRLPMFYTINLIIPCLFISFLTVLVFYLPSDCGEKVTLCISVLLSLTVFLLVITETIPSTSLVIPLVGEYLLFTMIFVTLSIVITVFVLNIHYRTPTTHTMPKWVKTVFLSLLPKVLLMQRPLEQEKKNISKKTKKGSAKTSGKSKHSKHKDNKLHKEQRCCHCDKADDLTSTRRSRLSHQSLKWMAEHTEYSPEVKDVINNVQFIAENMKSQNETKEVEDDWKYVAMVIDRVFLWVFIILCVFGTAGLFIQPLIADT

As for `COc1cc2c3cc1Oc1cc(ccc1O)CC1c4c(cc(OC)c(O)c4Oc4ccc(cc4)CC3N(C)CC2)CC[N+]1(C)C` (configuration not stated) [CAS_64645], affinity was put at a Ki of 7.7 µM.
With `COC1CC=C2CCN3CCC4=C(CC(=O)OC4)C23C1` (configuration not stated) [NSC_31762], affinity was put at a Ki of 2.8 µM.
Under `C[N+](C)(C)CCCCCCCCCC[N+](C)(C)C` [Decamethonium Iodide] stands more than 10 µM.
To `C[N+](C)(C)CCCCCC[N+](C)(C)C` [Hexamethoniumdibromide] belongs more than 10 µM; to `CC[N+](CC)(CC)CCOc1ccc(C=Cc2ccccc2)cc1` [CAS_17360], 4.52 µM.
To `CC(C)C[C@@H]1NC(=O)[C@H](CC(N)=O)NC(=O)[C@H](CO)NC(=O)[C@H](Cc2cnc[nH]2)NC(=O)[C@H](CCC(=O)O)NC(=O)[C@H](CC(C)C)NC(=O)[C@H](Cc2cnc[nH]2)NC(=O)[C@@H]2CSSC[C@H](NC(=O)CN)C(=O)N[C@@H](CSSC[C@@H](C(N)=O)NC1=O)C(=O)N[C@@H](CO)C(=O)N[C@@H](CC(N)=O)C(=O)N1CCC[C@H]1C(=O)N[C@@H](C(C)C)C(=O)N2` [Gly-L-Cys(1)-L-Cys(2)-L-Ser-L-Asn-L-Pro-L-Val-L-Cys(1)-L-His-L-Leu-L-Glu-L-His-L-Ser-L-Asn-L-Leu-L-Cys(2)-NH2] belongs 0.066 µM; to `CN1CCC[C@H]1c1cccnc1` [(R,S)-nicotine], 0.02 µM.
